From patent publication US11370763B2, “Compounds and compositions for treating conditions associated with NLRP activity” (Novartis AG, priority 2017, dated 2022)

These compounds were tested on IL-1β production in PMA-differentiated THP-1 cells (assay: IL-1β production in PMA-differentiated THP-1 cells stimulated with gramicidin (hTHP-1 assay containing 2% fetal bovine serum; Procedures 1-3)). Settings: Homo sapiens, THP-1, hTHP-1 assay containing 2% fetal bovine serum; class symbols; read-out: hTHP-1 IC50 (Average IC50 of compounds in hTHP-1 assay).
Format: cell-based, human
Method in brief: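 THP-1 cells differentiated with PMA (20 ng/ml, 16-18 h), replated in 2% FBS RPMI (50,000 cells/well), preincubated 1 h with compound (top final 100 μM, 3-fold steps, 0.37% DMSO), then stimulated 2 h with gramicidin (5 μM). Supernatant IL-1β measured by HTRF.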

Row | Structure (SMILES) | IC50
1 | CNS(=O)(=NC(=O)Cc1c(C(C)C)cc(F)cc1C(C)C)c1ncc(C(C)(C)O)s1 (stereo not shown) [Example 11, 2-(4-Fluoro-2,6-diisopropylphenyl)-N-(5-(2-hydroxypropan-2-yl)-N-methylthiazole-2-sulfonimidoyl)acetamide] | 5000 to 30000 nM
2 | CC(C)c1cc2c(c(C(C)C)c1CC(=O)N=S(N)(=O)c1cnc(C(C)(C)O)s1)CCC2 (stereo not shown) [Example 142, N-(amino(2-(2-hydroxypropan-2-yl)thiazol-5-yl)(oxo)-λ^6-sulfaneylidene)-2-(4,6-diisopropyl-2,3-dihydro-1H-inden-5-yl)acetamide] | 1000 to 5000 nM
3 | CC(C)c1ncc(F)c(C(C)C)c1CC(=O)N=S(N)(=O)c1sc(C(C)(C)O)cc1F (stereo not shown) [Example 149, N-(amino(3-fluoro-5-(2-hydroxypropan-2-yl)thiophen-2-yl)(oxo)-λ^6-sulfaneylidene)-2-(5-fluoro-2,4-diisopropylpyridin-3-yl)acetamide] | 200 to 1000 nM
4 | CC(C)c1cc(-c2ccc3ccccc3c2)cc(C(C)C)c1CC(=O)N=S(N)(=O)c1ncc(C(C)(C)O)s1 (stereo not shown) [Example 110, N-(amino(5-(2-hydroxypropan-2-yl)thiazol-2-yl)(oxo)-λ^6-sulfaneylidene)-2-(2,6-diisopropyl-4-(naphthalen-2-yl)phenyl)acetamide] | 200 to 1000 nM
5 | CC(C)c1cc(C#N)cc(C2CC2)c1CC(=O)N=S(N)(=O)c1ccc(CN(C)C)cc1F (single isomer, unassigned) [Example 62, (S)- or (R)-2-(4-cyano-2-cyclopropyl-6-isopropylphenyl)-N-(4-((dimethylamino)methyl)-2-fluorophenylsulfonimidoyl) acetamide] | 1000 to 5000 nM
6 | COc1ccc2cc(-c3cc(C(C)C)c(CC(=O)N=S(N)(=O)c4cnc(C(C)(C)O)s4)c(C(C)C)c3)ccc2c1 (stereo not shown) [Example 116, N-(amino(2-(2-hydroxypropan-2-yl)thiazol-5-yl)(oxo)-λ^6-sulfaneylidene)-2-(2,6-diisopropyl-4-(6-methoxynaphthalen-2-yl)phenyl)acetamide] | 5000 to 30000 nM
7 | CC(C)c1cc(C#N)cc(C(C)C)c1CC(=O)N=S(N)(=O)c1ccc(C(C)(C)O)cc1Cl (stereo not shown) [Example 34, N-(2-chloro-4-(2-hydroxypropan-2-yl)phenylsulfonimidoyl)-2-(4-cyano-2,6-diisopropylphenyl)acetamide] | 1000 to 5000 nM
8 | CC(C)c1c(F)c(C#N)cc(C2CC2)c1CC(=O)N=S(N)(=O)c1sc(C(C)(C)O)nc1CO (stereo not shown) [Example 115, N-(amino(4-(hydroxymethyl)-2-(2-hydroxypropan-2-yl)thiazol-5-yl)(oxo)-λ^6-sulfaneylidene)-2-(4-cyano-6-cyclopropyl-3-fluoro-2-isopropylphenyl)acetamide] | 200 to 1000 nM
9 | CC(C)c1cc(C#N)cc(C(C)C)c1CC(=O)N=S(N)(=O)c1sc(C(C)(C)O)nc1CO (stereo not shown) [Example 22, 2-(4-cyano-2,6-diisopropylphenyl)-N-(4-(hydroxymethyl)-2-(2-hydroxypropan-2-yl)thiazol-5-ylsulfonimidoyl)acetamide] | 200 to 1000 nM
10 | CCc1cc(C#N)cc(C(C)C)c1CC(=O)N=S(N)(=O)c1ccc(CN(C)C)cc1 (single isomer, unassigned) [Example 59, (R)- or (S)-2-(4-cyano-2-ethyl-6-isopropylphenyl)-N-(4-((dimethylamino)methyl)phenyl-sulfonimidoyl)acetamide] | 5000 to 30000 nM
11 | CC(C)c1cc2c(c(C(C)C)c1CC(=O)N=S(N)(=O)c1cnc(C(C)(C)O)s1)COC2 (stereo not shown) [Example 132, N-(amino(2-(2-hydroxypropan-2-yl)thiazol-5-yl)(oxo)-λ^6-sulfaneylidene)-2-(4,6-diisopropyl-1,3-dihydroisobenzofuran-5-yl)acetamide] | 1000 to 5000 nM
12 | CC(C)c1ncc(F)c(C(C)C)c1CC(=O)N=S(N)(=O)c1ccc(CN(C)C)cc1 (stereo not shown) [Example 101, N-(amino(4-((dimethylamino)methyl)phenyl)(oxo)-λ^6-sulfaneylidene)-2-(5-fluoro-2,4-diisopropylpyridin-3-yl)acetamide] | 5000 to 30000 nM
13 | CC(C)c1cc(F)cc(C(C)C)c1CC(=O)N=S(N)(=O)c1ncc(C(C)(C)O)s1 (stereo not shown) [Example 7, 2-(4-Fluoro-2,6-diisopropylphenyl)-N-(5-(2-hydroxypropan-2-yl)thiazole-2-sulfonimidoyl)acetamide] | 200 to 1000 nM
14 | CC(C)c1cc(OC(F)F)cc(C(C)C)c1CC(=O)N=S(N)(=O)c1cnc(C(C)(C)O)s1 (stereo not shown) [Example 16, 2-(4-(difluoromethoxy)-2,6-diisopropylphenyl)-N-(2-(2-hydroxypropan-2-yl)thiazol-5-ylsulfonimidoyl)acetamide] | 200 to 1000 nM
15 | CC(C)c1ccc(F)c(C(C)C)c1CC(=O)N=S(N)(=O)c1nc(C(C)(C)O)cs1 (stereo not shown) [Example 119, N-(amino(4-(2-hydroxypropan-2-yl)thiazol-2-yl)(oxo)-λ^6-sulfaneylidene)-2-(3-fluoro-2,6-diisopropylphenyl)acetamide] | 200 to 1000 nM
16 | CC(C)c1cc(F)c(F)c(C(C)C)c1CC(=O)N=S(N)(=O)c1nc(C(C)(C)O)cs1 (stereo not shown) [Example 124, N-(amino(4-(2-hydroxypropan-2-yl)thiazol-2-yl)(oxo)-λ^6-sulfaneylidene)-2-(3,4-difluoro-2,6-diisopropylphenyl)acetamide] | 200 to 1000 nM
17 | CC(C)c1cc(F)cc(C(C)C)c1CC(=O)N=S(N)(=O)c1ncc(C(C)(C)C(=O)O)s1 (stereo not shown) [Example 127, 2-(2-(N′-(2-(4-fluoro-2,6-diisopropylphenyl)acetyl)sulfamidimidoyl)thiazol-5-yl)-2-methylpropanoic acid] | 5000 to 30000 nM
18 | CC(C)c1ncc(F)c(C(C)C)c1CC(=O)N=S(N)(=O)c1cnc(C(C)(C)O)s1 (stereo not shown) [Example 146, N-(amino(2-(2-hydroxypropan-2-yl)thiazol-5-yl)(oxo)-λ^6-sulfaneylidene)-2-(5-fluoro-2,4-diisopropylpyridin-3-yl)acetamide] | 5000 to 30000 nM
19 | CC(C)c1cc(-n2cccn2)cc(C(C)C)c1CC(=O)N=S(N)(=O)c1cnc(C(C)(C)O)s1 (stereo not shown) [Example 107, N-(amino(2-(2-hydroxypropan-2-yl)thiazol-5-yl)(oxo)-λ^6-sulfaneylidene)-2-(2,6-diisopropyl-4-(1H-pyrazol-1-yl)phenyl)acetamide] | 5000 to 30000 nM
20 | CC(C)c1cc(C(F)F)cc(C(C)C)c1CC(=O)N=S(N)(=O)c1ccc(CN(C)C)cc1F (stereo not shown) [Example 35, 2-(4-(difluoromethyl)-2,6-diisopropylphenyl)-N-(4-((dimethylamino)methyl)-2-fluorophenylsulfonimidoyl) acetamide] | 200 to 1000 nM
21 | CC(C)(O)c1ncc(S(N)(=O)=NC(=O)Cc2c(C3CC3)cc(F)cc2C(F)(F)F)s1 (stereo not shown) [Example 98] | 5000 to 30000 nM
22 | COCc1cc(C(C)C)c(CC(=O)N=S(N)(=O)c2cnc(C(C)(C)O)s2)c(C(C)C)c1 (stereo not shown) [Example 108, N-(amino(2-(2-hydroxypropan-2-yl)thiazol-5-yl)(oxo)-λ^6-sulfaneylidene)-2-(2,6-diisopropyl-4-(methoxymethyl)phenyl) acetamide] | 40 to 200 nM
23 | CC(C)c1cc(F)cc(C(C)C)c1CC(=O)N[S@@](=N)(=O)c1ncc(C(C)(C)O)s1 (single isomer, unassigned) [Example 9] | 200 to 1000 nM
24 | Cc1sc(S(N)(=O)=NC(=O)Cc2c(C(C)C)ccc(F)c2C(C)C)cc1C(C)(C)O (stereo not shown) [Example 129, N-(amino(4-(2-hydroxypropan-2-yl)-5-methylthiophen-2-yl)(oxo)-λ^6-sulfaneylidene)-2-(3-fluoro-2,6-diisopropylphenyl)acetamide] | 40 to 200 nM
25 | CC(C)c1cc(F)cc(C(C)C)c1CC(=O)N=S(N)(=O)c1sc(C(C)(C)O)cc1F (stereo not shown) [Example 17, 2-(4-fluoro-2,6-diisopropylphenyl)-N-(3-fluoro-5-(2-hydroxypropan-2-yl)thiophen-2-ylsulfonimidoyl)acetamide] | 8 to 40 nM
26 | COc1ccc(CNS(=O)(=NC(=O)Cc2c(C(C)C)cc(F)cc2C(C)C)c2ncc(C(C)(C)O)s2)cc1 (stereo not shown) [compound 41, 2-(4-fluoro-2,6-diisopropylphenyl)-N-(5-(2-hydroxypropan-2-yl)-N-(4-methoxybenzyl)thiazole-2-sulfonimidoyl)acetamide] | 5000 to 30000 nM
27 | CC(C)c1cc2c(c(C(C)C)c1CC(=O)N=S(N)(=O)c1ccn(C(C)C)n1)COC2 (single isomer, unassigned) [Example 218, (R) or (S)-N-(amino(1-isopropyl-1H-pyrazol-3-yl)(oxo)-λ^6-sulfaneylidene)-2-(4,6-diisopropyl-1,3-dihydroisobenzofuran-5-yl)acetamide] | 5000 to 30000 nM

Same assay, conditions: Homo sapiens, THP-1, hTHP-1 assay containing 2% fetal bovine serum; given as numeric bound; read-out: hTHP-1 IC50 (Average IC50 of compounds in hTHP-1 assay)

Row | Structure (SMILES) | IC50
28 | CC(C)c1ccc(F)c(C(C)C)c1CC(=O)N=S(N)(=O)c1ccc2c(cnn2C)c1 (single isomer, unassigned) [Example 199, (S) or (R)-N-(amino(1-methyl-1H-indazol-5-yl)(oxo)-λ^6-sulfaneylidene)-2-(3-fluoro-2,6-diisopropylphenyl)acetamide] | > 30000 nM
29 | CC(C)c1cc2c(c(C(C)C)c1CC(=O)N=S(N)(=O)c1ccc(CN(C)C)cc1)COC2 (single isomer, unassigned) [Example 192, (S) or (R)-N-(amino(4-((dimethylamino)methyl)phenyl) (oxo)-λ^6-sulfaneylidene)-2-(4,6-diisopropyl-1,3-dihydroisobenzofuran-5-yl)acetamide] | > 30000 nM
30 | CC(C)(O)c1cnc(S(=N)(=O)NC(=O)Cc2c3c(cc4c2CCC4)CCC3)s1 (single isomer, unassigned) [Example 5] | > 30000 nM

Same assay, conditions: hTHP-1 assay containing 2% fetal bovine serum; class symbols; read-out: hTHP-1 IC50 (Average IC50 of compounds in hTHP-1 assay)

Row | Structure (SMILES) | IC50
31 | Cc1ccc(-c2cc(C(C)C)c(CC(=O)N=S(N)(=O)c3ncc(C(C)(C)O)s3)c(C(C)C)c2)cc1C (single isomer, unassigned) [Example 168, (R) or (S)-N-(amino(5-(2-hydroxypropan-2-yl)thiazol-2-yl)(oxo)-λ^6-sulfaneylidene)-2-(3,5-diisopropyl-3′,4′-dimethyl-[1,1′-biphenyl]-4-yl)acetamide] | 200 to 1000 nM
